# Results from doi:10.1101/2024.03.07.583918v2 (biorxiv, 2024).
# Molecular target: T1, CheR (Pectobacterium atrosepticum, UniProt Q6D6I8)
# T1 sequence (Q6D6I8 1-290): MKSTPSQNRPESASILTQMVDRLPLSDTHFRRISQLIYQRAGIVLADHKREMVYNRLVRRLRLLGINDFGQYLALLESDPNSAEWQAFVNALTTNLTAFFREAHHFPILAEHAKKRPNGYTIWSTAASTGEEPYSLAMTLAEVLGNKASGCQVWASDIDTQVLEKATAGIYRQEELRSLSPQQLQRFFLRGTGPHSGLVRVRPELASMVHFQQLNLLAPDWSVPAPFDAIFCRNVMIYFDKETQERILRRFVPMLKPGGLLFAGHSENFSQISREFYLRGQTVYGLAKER
# Test: isothermal titration calorimetry
# Format: binding
row,Structure (SMILES),Kd [µM]
1,Nc1ncnc2c1ncn2[C@@H]1O[C@H](CSCC[C@H](N)C(=O)O)[C@@H](O)[C@H]1O [SAH],0.48 ± 0.02
2,C[S+](CC[C@H](N)C(=O)O)C[C@H]1O[C@@H](n2cnc3c(N)ncnc32)[C@H](O)[C@@H]1O (some centres unmarked) [SAM],140 ± 20
